US20110091945A1, “METHODS OF INCREASING BIOMASS PRODUCTIVITY, LIPID INDUCTION, AND CONTROLLING METABOLITES IN ALGAE FOR PRODUCTION OF BIOFUELS USING BIOCHEMICAL STIMULANTS” (priority 2009, published 2011)

What was measured:
Chlorella sorokiniana [1] = assay: Biostimulant static culture batch study: biomass productivity; type: cell-based, Chlorella sorokiniana (UTEX 2805); conditions: for effect on biomass / algal growth versus control, in words: day 5 and 10; for effect on biomass / algal growth versus control, in words / growth (biomass) increase over control: dosage of Table 1; for biomass (cell concentration / biomass productivity): 0.16 g/L with no biostimulants; for increase in biomass over control: dosage of Table 1 (NAA 5 ppm, PAA 30 ppm, IBA 10 ppm); for growth (biomass) increase over control: day not given
Experimental: (§1) The pH value of culture medium was adjusted to 7.0±0.2 before inoculation and the alga was maintained in a temperature controlled growth chamber at 25±1° C. and 100±10 μmoles/m^2/s light intensity provided by cool white fluorescent (6500K) T-8 bulbs.
(§2) • Selection of the biochemical stimulants: Ten biochemical stimulants were selected, including indole-acetic acid, naphthalene-acetic acid, and phenyl-acetic acid The structures are shown in FIGS. 1 and 2. • Biochemical stimulants: Naphthalene acetic acid (NAA), indole-butryic acid […], gibberellic acid, and kelp extract were obtained from Super-Grow Plant Care, Montreal, Canada; Zeatin, and thidiazuron were obtained from bioWORLD, GeneLinx International, Inc, Ohio, USA; phenyl-acetic acid was supplied by Sigma-Aldrich, St. Louis, Mo., USA.
(§3) The experiment devised for the testing of biostimulants was a static culture batch study performed in triplicates for all treatments. Samples were collected and analyzed on day 0, 5 and 10. The growth medium was comprised of 90 ml of BG11 with appropriate concentrations of various biostimulants. Biochemical stimulants were filter sterilized through 0.22 μm Whatman syringe filter to avoid bacterial contamination. Each flask received 10 ml inoculum of exponentially growing Chlorella sorokiniana. After inoculation, flasks were incubated in the environmental growth chamber for 10 days in a temperature controlled growth chamber at 25±1° C. and 100±10 μmoles/m^21s light intensity provided by cool white fluorescent (6500K) T-8 bulbs.
(§4) • Analysis: Optical density was measured at 750 nm using a UV/Visible Spectrophotometer (Varian Cary 50, Varian Inc, Palo Alto, Calif., USA). Chlorophyll content was estimated following the method of Porra et al., ((1989) Biochem. Biophys. Acta 975: 384-394, incorporated herein in its entirety). The carbohydrate and protein content were estimated using the well-known methods of Dubois and Lowry respectively. Biomass was determined by filtering 25 mL of culture using pre-weighed Whatman GF/C glass fiber filters (1.2 μm). The material was washed with deionized water, dried at 60° C. for 12 h, and weighed. Photosynthetic efficiency and kinetics were determined by chlorophyll a fluorescence analysis using a Pulse Amplitude Modulation Fluorometer (Mini-PAM Chlorophyll a Fluorometer, Heinz Walz GmbH, Effeltrich, Germany).

Chlorella sorokiniana [2] = assay: Biostimulant static culture batch study: chlorophyll content; type: cell-based, Chlorella sorokiniana (UTEX 2805); design: increase in chlorophyll over control / decrease in chlorophyll content versus control: concentration or dose not given beside the values; conditions: for increase in chlorophyll over control: day 10; for decrease in chlorophyll content versus control: day 5
Experimental: as §1, §2, §3, §4

Chlorella sorokiniana [3] = assay: Biostimulant static culture batch study: total carbohydrate content; type: cell-based, Chlorella sorokiniana (UTEX 2805); conditions: for effect on carbohydrate synthesis versus control, in words: day 5; for increase in carbohydrate over control: day 10
Experimental: as §1, §2, §3, §4

Scenedesmus obliquus = conditions: 0.5% (v/v); cited from earlier work
[4] = tested on: soy callus and radish cotyledon; conditions: cited from earlier work
[5] = tested on: callus tissue culture from tobacco; conditions: cited from earlier work
Dunaliella tertiolecta = conditions: 136 mg L^−1; cited from earlier work

C=C1C[C@]23C[C@@]1(O)CC[C@H]2[C@@]12C=C[C@H](O)[C@@](C)(C(=O)O1)[C@H]2[C@@H]3C(=O)O [GAA, gibberellic acid]
effect on biomass / algal growth versus control, in words (Chlorella sorokiniana [1]): barely surpassed the control on day 5
biomass (cell concentration / biomass productivity) (Chlorella sorokiniana [1]; day 10): ~0.28 g/L
increase in biomass over control (Chlorella sorokiniana [1]; day 10, listed as GA): approximately 30%
increase in biomass over control (Chlorella sorokiniana [1]; day 10, listed as GA3): 81%
effect on chlorophyll synthesis, in words (Chlorella sorokiniana [2]): inhibiting chlorophyll synthesis throughout the growth period
increase in chlorophyll over control (Chlorella sorokiniana [2]): 30%

O=C(O)CCCc1c[nH]c2ccccc12 [IBA, indole-butryic acid]
increase in biomass over control (Chlorella sorokiniana [1]; day 5): 74%
effect on biomass / algal growth versus control, in words (Chlorella sorokiniana [1]): stimulated biomass growth during the entire 0-10 day growth period
biomass (cell concentration / biomass productivity) (Chlorella sorokiniana [1]; day 10): 0.28 g/L
increase in biomass over control (Chlorella sorokiniana [1]; day 10): 76%
effect on chlorophyll synthesis, in words (Chlorella sorokiniana [2]): marginal increase by day 5
increase in chlorophyll over control (Chlorella sorokiniana [2]): 93%
effect on carbohydrate synthesis versus control, in words (Chlorella sorokiniana [3]): reduced carbohydrate contents on day 5

CO [MeOH, methanol]
decrease in chlorophyll content versus control (Chlorella sorokiniana [2]): 45%
increase in the growth rate (Scenedesmus obliquus): > 300%

O=C(O)Cc1ccccc1 [PAA, Phenyl acetic acid]
increase in biomass over control (Chlorella sorokiniana [1]; day 5): 95%
increase in biomass over control (Chlorella sorokiniana [1]; day 10): 42%
decrease in chlorophyll content versus control (Chlorella sorokiniana [2]): 37%
effect on carbohydrate synthesis versus control, in words (Chlorella sorokiniana [3]): reduced carbohydrate contents on day 5
increase in carbohydrate over control (Chlorella sorokiniana [3]): 27%

O=C(Nc1ccccc1)Nc1cnns1 [TDZ, thidiazuron]
increase in biomass over control (Chlorella sorokiniana [1]; day 10): approximately 30%
growth (biomass) increase over control (Chlorella sorokiniana [1]): 33%
increase in chlorophyll over control (Chlorella sorokiniana [2]): 30%
optimal dose that generated maximum growth in soy callus and expansion of radish cotyledon [4]: 1 µM

C/C(=C\CNc1ncnc2[nH]cnc12)CO [Zeatin]
growth (biomass) increase over control (Chlorella sorokiniana [1]): 27%
effect on carbohydrate synthesis versus control, in words (Chlorella sorokiniana [3]): reduced carbohydrates synthesis on day 5
increase in carbohydrate over control (Chlorella sorokiniana [3]): 31%
activity relative to its cis isomer [5]: at least 50 times
optimal dosage for maximum growth of callus tissue culture [5]: 10^−2 μM

CCNc1nc(Cl)nc(NC(C)C)n1 [atrazine]
increase in lipid content relative to the control (Dunaliella tertiolecta): 101%
reduction of protein content relative to the control (Dunaliella tertiolecta): 57%

[Cl][Fe]([Cl])[Cl] [ferric chloride]
effect on biomass / algal growth versus control, in words (Chlorella sorokiniana [1]): only marginal increases and decreases on day 10 and 5
decrease in chlorophyll content versus control (Chlorella sorokiniana [2]): 65%
